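Interpolation was linear, between the two tested concentrations surrounding the appropriate level; five concentrations were tested over 48 hours in 96-well plates. Here, GI50 denotes the concentration required for 50% inhibition of growth.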 The source made the active and inactive calls. Cut-off read from the data, not from the text of the source: active = GI50 up to about 1.1 µM and inactive = higher.
Experiments:
Test in all cases: inhibition of tumour cell growth, NCI panel, 48 h
786-0 = system: 786-0
A498 = system: A498
A549 = system: A549
ACHN = system: ACHN
BT-549 = system: BT-549
CAKI-1 = system: CAKI-1
CCRF-CEM = system: CCRF-CEM
COLO 205 = system: COLO 205
DU-145 = system: DU-145
EKVX = system: EKVX
HCC 2998 = system: HCC 2998
HCT-116 = system: HCT-116
HCT-15 = system: HCT-15
HL-60 = system: HL-60
HOP-92 = system: HOP-92
HT-29 = system: HT-29
Hs-578T = system: Hs-578T
IGROV-1 = system: IGROV-1
KM12 = system: KM12
LOX IMVI = system: LOX IMVI
M14 = system: M14
MCF7 = system: MCF7
MDA-MB-231 = system: MDA-MB-231
MDA-MB-435 = system: MDA-MB-435
MDA-N = system: MDA-N
MOLT-4 = system: MOLT-4
Malme-3M = system: Malme-3M
NCI-H226 = system: NCI-H226
NCI-H23 = system: NCI-H23
NCI-H460 = system: NCI-H460
NCI-H522 = system: NCI-H522
NCI/ADR-RES = system: NCI/ADR-RES
OVCAR-3 = system: OVCAR-3
OVCAR-4 = system: OVCAR-4
OVCAR-5 = system: OVCAR-5
OVCAR-8 = system: OVCAR-8
PC-3 = system: PC-3
RPMI-8226 = system: RPMI-8226
SF-268 = system: SF-268
SF-295 = system: SF-295
SF-539 = system: SF-539
SK-MEL-28 = system: SK-MEL-28
SK-MEL-2 = system: SK-MEL-2
SK-MEL-5 = system: SK-MEL-5
SK-OV-3 = system: SK-OV-3
SN12C = system: SN12C
SNB-19 = system: SNB-19
SNB-75 = system: SNB-75
SW-620 = system: SW-620
T47D = system: T47D
TK-10 = system: TK-10
U-251 = system: U-251
UACC-257 = system: UACC-257
UACC-62 = system: UACC-62
UO-31 = system: UO-31
HOP-62 = system: HOP-62
K562 = system: K562
RXF 393 = system: RXF 393

For `COc1ccc2c(c1OC)C(C(Cl)(Cl)Cl)N1CCc3cc4c(cc3C1=C2)OCO4` (stereo not drawn), the GI50 (786-0) was 15.2 µM (inactive), the GI50 (A498) was 67.6 µM (inactive) and the GI50 (A549) was 35.6 µM (inactive). For the same compound, the GI50 (ACHN) was 22.9 µM (inactive), the GI50 (BT-549) was 1.03 µM (active) and the GI50 (CAKI-1) was 40.8 µM (inactive). For the same compound, the GI50 (CCRF-CEM) was 6.71 µM (inactive), the GI50 (COLO 205) was 5.45 µM (inactive) and the GI50 (DU-145) was 16.3 µM (inactive). For the same compound, the GI50 (EKVX) was 42.7 µM (inactive), the GI50 (HCC 2998) was 10.8 µM (inactive) and the GI50 (HCT-116) was 10.6 µM (inactive). The GI50 (HCT-15) was 33.3 µM, the GI50 (HL-60) was 15.2 µM (inactive) and the GI50 (HOP-92) was 23.9 µM (inactive). For the same compound, the GI50 (HT-29) was 25.8 µM (inactive), the GI50 (Hs-578T) was 18.4 µM (inactive) and the GI50 (IGROV-1) was 25.5 µM (inactive). The GI50 (KM12) was 7.6 µM (inactive), the GI50 (LOX IMVI) was 32.7 µM (inactive) and the GI50 (M14) was 28.4 µM (inactive). The GI50 (MCF7) was 28.1 µM (inactive), the GI50 (MDA-MB-231) was 23.5 µM (inactive) and the GI50 (MDA-MB-435) was 11.1 µM (inactive). For the same compound, the GI50 (MDA-N) was 15.4 µM (inactive), the GI50 (MOLT-4) was 16 µM (inactive) and the GI50 (Malme-3M) was 11.5 µM (inactive). The GI50 (NCI-H226) was 10.9 µM (inactive), the GI50 (NCI-H23) was 12.9 µM (inactive) and the GI50 (NCI-H460) was 10.7 µM (inactive). For the same compound, the GI50 (NCI-H522) was 13.9 µM (inactive), the GI50 (NCI/ADR-RES) was 44.6 µM (inactive) and the GI50 (OVCAR-3) was 7.43 µM (inactive). The GI50 (OVCAR-4) was 5.93 µM (inactive), the GI50 (OVCAR-5) was 72.6 µM (inactive) and the GI50 (OVCAR-8) was 8.11 µM (inactive). The GI50 (PC-3) was 24.7 µM (inactive), the GI50 (RPMI-8226) was 2.08 µM (inactive) and the GI50 (SF-268) was 3.41 µM (inactive). For the same compound, the GI50 (SF-295) was 9.31 µM (inactive), the GI50 (SF-539) was 35 µM (inactive) and the GI50 (SK-MEL-28) was 12 µM (inactive). The GI50 (SK-MEL-2) was 17.2 µM (inactive), the GI50 (SK-MEL-5) was 3.94 µM (inactive) and the GI50 (SK-OV-3) was 23.9 µM (inactive). The GI50 (SN12C) was 13.1 µM (inactive), the GI50 (SNB-19) was 5.82 µM (inactive) and the GI50 (SNB-75) was 46.5 µM (inactive). For the same compound, the GI50 (SW-620) was 21.2 µM (inactive), the GI50 (T47D) was 10.8 µM (inactive) and the GI50 (TK-10) was 27 µM (inactive). For the same compound, the GI50 (U-251) was 3.69 µM (inactive), the GI50 (UACC-257) was 7.16 µM (inactive) and the GI50 (UACC-62) was 11.8 µM (inactive). The GI50 (UO-31) was 35.6 µM (inactive).
With `COc1cc(CN2CCCCC2)cc2cc(C(=O)O)c(=O)oc12` the GI50 (786-0) was > 100 µM (inactive), the GI50 (A498) was > 100 µM (inactive) and the GI50 (A549) was > 100 µM (inactive). For the same compound, the GI50 (ACHN) was > 100 µM (inactive), the GI50 (BT-549) was > 100 µM (inactive) and the GI50 (CAKI-1) was > 100 µM (inactive). The GI50 (CCRF-CEM) was > 100 µM (inactive), the GI50 (COLO 205) was > 100 µM (inactive) and the GI50 (DU-145) was > 100 µM (inactive). For the same compound, the GI50 (EKVX) was > 100 µM (inactive), the GI50 (HCC 2998) was > 100 µM (inactive) and the GI50 (HCT-116) was > 100 µM (inactive). For the same compound, the GI50 (HCT-15) was > 100 µM, the GI50 (HL-60) was > 100 µM (inactive) and the GI50 (HOP-62) was > 100 µM (inactive). The GI50 (HOP-92) was > 100 µM (inactive), the GI50 (HT-29) was > 100 µM (inactive) and the GI50 (Hs-578T) was > 100 µM (inactive). The GI50 (IGROV-1) was > 100 µM (inactive), the GI50 (K562) was > 100 µM (inactive) and the GI50 (KM12) was > 100 µM (inactive). For the same compound, the GI50 (LOX IMVI) was > 100 µM (inactive), the GI50 (M14) was > 100 µM (inactive) and the GI50 (MCF7) was > 100 µM (inactive). The GI50 (MDA-MB-231) was > 100 µM (inactive), the GI50 (MDA-MB-435) was > 100 µM (inactive) and the GI50 (MDA-N) was > 100 µM (inactive). For the same compound, the GI50 (MOLT-4) was > 100 µM (inactive), the GI50 (Malme-3M) was > 100 µM (inactive) and the GI50 (NCI-H226) was > 100 µM (inactive). The GI50 (NCI-H23) was > 100 µM (inactive), the GI50 (NCI-H460) was > 100 µM (inactive) and the GI50 (NCI-H522) was > 100 µM (inactive). The GI50 (NCI/ADR-RES) was > 100 µM (inactive), the GI50 (OVCAR-3) was > 100 µM (inactive) and the GI50 (OVCAR-4) was > 100 µM (inactive). The GI50 (OVCAR-5) was > 100 µM (inactive), the GI50 (OVCAR-8) was > 100 µM (inactive) and the GI50 (PC-3) was > 100 µM (inactive). For the same compound, the GI50 (RPMI-8226) was > 100 µM (inactive), the GI50 (RXF 393) was > 100 µM (inactive) and the GI50 (SF-268) was > 100 µM (inactive). For the same compound, the GI50 (SF-295) was > 100 µM (inactive), the GI50 (SF-539) was > 100 µM (inactive) and the GI50 (SK-MEL-28) was > 100 µM (inactive). The GI50 (SK-MEL-2) was > 100 µM (inactive), the GI50 (SK-MEL-5) was > 100 µM (inactive) and the GI50 (SK-OV-3) was > 100 µM (inactive). For the same compound, the GI50 (SN12C) was > 100 µM (inactive), the GI50 (SNB-19) was > 100 µM (inactive) and the GI50 (SNB-75) was > 100 µM (inactive). For the same compound, the GI50 (SW-620) was > 100 µM (inactive), the GI50 (T47D) was > 70.1 µM (inactive) and the GI50 (TK-10) was > 100 µM (inactive). The GI50 (U-251) was > 100 µM (inactive), the GI50 (UACC-257) was > 100 µM (inactive) and the GI50 (UACC-62) was > 100 µM (inactive). The GI50 (UO-31) was > 100 µM (inactive).

From ChEMBL document CHEMBL1201862, “PubChem BioAssay data set” (2004)
